From PubChem BioAssay (NCI)
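Each compound was tested at five concentrations against cells in 96-well plates for 48 hours. Definition used: TGI = concentration required for complete inhibition of growth.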

Tests used:
Assay in all cases: DTP human tumour cell line panel, 48 h
OVCAR-3 ovarian = test system: OVCAR-3 ovarian
A498 renal = test system: A498 renal
CCRF-CEM leukemia = test system: CCRF-CEM leukemia
HCC-2998 colon = test system: HCC-2998 colon
SF-295 CNS = test system: SF-295 CNS
MDA-N = test system: MDA-N
HOP-92 NSCLC = test system: HOP-92 NSCLC
BT-549 breast = test system: BT-549 breast
U251 CNS = test system: U251 CNS
NCI-H460 lung = test system: NCI-H460 lung
SK-OV-3 ovarian = test system: SK-OV-3 ovarian
RXF 393 renal = test system: RXF 393 renal
T-47D breast = test system: T-47D breast
MALME-3M melanoma = test system: MALME-3M melanoma
NCI-H226 lung = test system: NCI-H226 lung
SN12C renal = test system: SN12C renal
CAKI-1 renal = test system: CAKI-1 renal
HCT-116 colon = test system: HCT-116 colon
IGROV1 ovarian = test system: IGROV1 ovarian
A549 NSCLC = test system: A549 NSCLC

`Cc1cccc(N=Nc2c(C)nn(C(=O)CC(=O)Nc3ccccc3)c2C)c1` was tested, and the TGI (OVCAR-3 ovarian) was greater than 100 µM, the TGI (A498 renal) was greater than 100 µM and the TGI (CCRF-CEM leukemia) was greater than 100 µM. It also gave a TGI (HCC-2998 colon) greater than 100 µM, a TGI (SF-295 CNS) greater than 100 µM and a TGI (MDA-N) greater than 100 µM. For the same compound, the TGI (HOP-92 NSCLC) was greater than 100 µM, the TGI (BT-549 breast) was greater than 100 µM and the TGI (U251 CNS) was greater than 100 µM. For the same compound, the TGI (NCI-H460 lung) was greater than 100 µM, the TGI (SK-OV-3 ovarian) was greater than 100 µM and the TGI (RXF 393 renal) was greater than 100 µM. The TGI (T-47D breast) was greater than 100 µM, the TGI (MALME-3M melanoma) was greater than 100 µM and the TGI (NCI-H226 lung) was greater than 100 µM. The TGI (SN12C renal) was greater than 100 µM, the TGI (CAKI-1 renal) was greater than 100 µM and the TGI (HCT-116 colon) was greater than 100 µM. For the same compound, the TGI (IGROV1 ovarian) was greater than 100 µM and the TGI (A549 NSCLC) was greater than 100 µM.
With `CC(=O)CCNc1ccc(-c2cc(-c3ccc(N(C)C)cc3)nc3ccc4ccccc4c23)cc1` the TGI (OVCAR-3 ovarian) was greater than 100 µM, the TGI (A498 renal) was greater than 100 µM and the TGI (CCRF-CEM leukemia) was greater than 100 µM. For the same compound, the TGI (HCC-2998 colon) was greater than 100 µM, the TGI (SF-295 CNS) was greater than 100 µM and the TGI (MDA-N) was greater than 100 µM. For the same compound, the TGI (HOP-92 NSCLC) was greater than 100 µM, the TGI (BT-549 breast) was greater than 100 µM and the TGI (U251 CNS) was greater than 100 µM. For the same compound, the TGI (NCI-H460 lung) was greater than 100 µM, the TGI (SK-OV-3 ovarian) was greater than 100 µM and the TGI (RXF 393 renal) was greater than 100 µM. The TGI (T-47D breast) was greater than 100 µM, the TGI (MALME-3M melanoma) was greater than 100 µM and the TGI (NCI-H226 lung) was greater than 78.9 µM. For the same compound, the TGI (SN12C renal) was greater than 100 µM, the TGI (CAKI-1 renal) was greater than 100 µM and the TGI (HCT-116 colon) was greater than 100 µM. It also gave a TGI (IGROV1 ovarian) greater than 100 µM and a TGI (A549 NSCLC) greater than 100 µM.
For `NS(=O)(=O)c1ccc(NNc2c3ccccc3nc3ccccc23)cc1`, the TGI (OVCAR-3 ovarian) was 15 µM, the TGI (A498 renal) was 53.9 µM and the TGI (CCRF-CEM leukemia) was 18.5 µM. It also gave a TGI (HCC-2998 colon) of 17.6 µM, a TGI (SF-295 CNS) of 19.8 µM and a TGI (MDA-N) of 17.5 µM. It also gave a TGI (HOP-92 NSCLC) of 23.4 µM, a TGI (BT-549 breast) of 15.1 µM and a TGI (U251 CNS) of 16.3 µM. The TGI (NCI-H460 lung) was 21.3 µM, the TGI (SK-OV-3 ovarian) was 24.5 µM and the TGI (RXF 393 renal) was 23 µM. For the same compound, the TGI (T-47D breast) was 20.4 µM, the TGI (MALME-3M melanoma) was 15.9 µM and the TGI (NCI-H226 lung) was 18.8 µM. For the same compound, the TGI (SN12C renal) was 23.1 µM, the TGI (CAKI-1 renal) was 18.9 µM and the TGI (HCT-116 colon) was 15.5 µM. The TGI (IGROV1 ovarian) was 19.1 µM and the TGI (A549 NSCLC) was 25.6 µM.
In the case of `CC1=C2C(=O)OCC23C=COC3(C)O1` (stereo not given), the TGI (OVCAR-3 ovarian) is reported as 97.1 µM, the TGI (A498 renal) is reported as greater than 100 µM and the TGI (CCRF-CEM leukemia) is reported as greater than 100 µM. It also gave a TGI (HCC-2998 colon) greater than 100 µM, a TGI (SF-295 CNS) greater than 100 µM and a TGI (MDA-N) greater than 100 µM. For the same compound, the TGI (HOP-92 NSCLC) was greater than 100 µM, the TGI (BT-549 breast) was greater than 100 µM and the TGI (U251 CNS) was greater than 100 µM. For the same compound, the TGI (NCI-H460 lung) was greater than 100 µM, the TGI (SK-OV-3 ovarian) was greater than 100 µM and the TGI (RXF 393 renal) was greater than 100 µM. The TGI (T-47D breast) was greater than 100 µM, the TGI (MALME-3M melanoma) was 74.5 µM and the TGI (NCI-H226 lung) was 97.8 µM. It also gave a TGI (SN12C renal) greater than 100 µM, a TGI (CAKI-1 renal) of 68.8 µM and a TGI (HCT-116 colon) greater than 100 µM. For the same compound, the TGI (IGROV1 ovarian) was greater than 100 µM and the TGI (A549 NSCLC) was greater than 100 µM.
